Laboratory results from US20050215548A1 (Cyclacel Limited, priority 2002, published 2005).
Read-outs that look alike come from different tables or passages of the source. Blank lines part the entries; values can stand above or below the compound they belong to.

Key:
carcinoma cell lines = assay: 72-h MTT panel, average carcinomas; type: cell-based; details: Homo sapiens, read-out: Anti-proliferative activity, 72-h MTT IC50, Average carcinomas
Protocol: (§1) Representative bisarylsulfonamide compounds were tested on a panel of transformed and non-transformed human cell lines, using a standard 72-h MTT cytotoxicity assay [Haselsberger K et al, ibid].
This differential selectivity further supports the notion that the bisarylsulfonamides modulate cellular HDM2 function. It is known that HDM2 amplification is particularly common in soft tissue sarcomas and osteosarcomas [Momand J et al, ibid; Bartel F, Meye A, Wurl P, Kappler M, Bache M, Lautenschlager C, Grunbaum U, Schmidt H, Taubert H; Int. J. Cancer 2001; 95: 168-175].

HDM2 [1] = target: T1, HDM2 (Homo sapiens, UniProt Q00987); details: literature, cited from earlier work; for affinity for HDM2 / inhibition of the p53/HDM2 complex: background
T1 construct: Recombinant HDM2 (1.5 μg per well) in TBS-BSA buffer
T1 sequence (Q00987 whole entry): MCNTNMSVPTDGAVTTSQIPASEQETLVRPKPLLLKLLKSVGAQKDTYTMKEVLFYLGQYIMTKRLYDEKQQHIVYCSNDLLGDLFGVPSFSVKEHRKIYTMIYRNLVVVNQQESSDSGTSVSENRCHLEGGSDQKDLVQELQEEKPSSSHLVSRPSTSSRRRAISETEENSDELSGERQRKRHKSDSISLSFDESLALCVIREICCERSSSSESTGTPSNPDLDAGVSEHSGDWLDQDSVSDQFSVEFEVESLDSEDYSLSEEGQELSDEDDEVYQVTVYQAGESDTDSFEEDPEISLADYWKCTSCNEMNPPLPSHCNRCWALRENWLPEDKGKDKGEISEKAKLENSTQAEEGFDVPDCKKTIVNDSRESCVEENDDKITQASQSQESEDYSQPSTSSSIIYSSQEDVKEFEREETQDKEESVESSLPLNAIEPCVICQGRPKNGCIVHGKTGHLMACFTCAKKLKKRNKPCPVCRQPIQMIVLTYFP

AGS [2] = assay: Combination treatment with cisplatin or etoposide, MTT, AGS; type: cell-based, human; details: MTT, 72 hours
Source text: (§2) It is well established that radiotherapy and most current forms of chemotherapy cause extensive genetic damage and induction of the p53-dependent apoptotic pathway, which determines the important role of this tumor suppressor protein in cancer therapy. HDM2, on the other hand, as a transcriptional product and negative regulator pf p53, would destabilise p53 and diminish its pro-apoptotic function. Inhibitors of the p53-HDM2 negative feedback loop (e.g. compounds disrupting the p53-HDM2 complex) are expected to synergise with cytotoxic agents for induction of p53 and subsequent apoptosis. […] Both chemotherapeutic agents were used in the concentration range of 100-0.19 μM.

H1299 = assay: Combination treatment with cisplatin or etoposide, MTT, H1299; type: cell-based, human; details: 72 hours
Source text: as §2

SJSA-1 = assay: Combination treatment with cisplatin or etoposide, MTT, SJSA-1; type: cell-based, human; details: MTT, 72 hours
Source text: as §2

[3] = tested on: key proteins in the HDM2 pathway; assay: SDS-PAGE and immunoblotting of key proteins in the HDM2 pathway; type: cell-based, human; details: for changes in protein levels and cell morphology: negative control: MCF7, 13.5 μM, 68/69: MCF7 and H1299 at five times IC50 of 69, 49: AGS, SJSA1, H1299
Source text: Equal amounts of cell lysate were separated by SDS-PAGE and analysed by immunoblotting using the indicated antibodies. An estimation of the extent of cell rounding is indicated above each lane. […] (B) The effect of compound 2 on the levels of the cell cycle proteins in AGS cells (wild-type 53). […] Equal amounts of cell lysate were separated by SDS-PAGE and analysed by immunoblotting using the indicated antibodies. An estimation of the extent of cell rounding is indicated above each lane. (C) The effect of negative control compound (refer Example 10), compound 2, cisplatin, and anisomycin on the levels of key proteins in MCF7 cells. […] Cisplatinum and anisomycin (a transcription inhibitor) treatments were with 50 μM or 37 μM, respectively. Cells were harvested at various time points; afterwards lysates were prepared and separated by SDS-PAGE and analysed by immunoblotting. The proteins detected are indicated. The extent of rounded or floating cells and the percentage viable cells were assessed. […] Equal amounts of cell lysate were separated by SDS-PAGE and analysed by immunoblotting using a range of antibodies. An estimation of the extent of cell rounding is indicated above each lane. […] SJSA1 cells were treated with 5 times [IC50] of compound 2 and collected at the indicated time points. Equal amounts of cell lysate were separated by SDS-PAGE and analysed by immunoblotting using a range of antibodies. An estimation of the extent of cell rounding is indicated above each lane.
Many types of cellular stress converge on the p53 pathway and induce its activity. […] The biological effect of bisarylsufonamides on cellular level was studies using representative compounds (mainly compound 2) and number of cell lines with different HDM2 and p53 status. These were overexpressing Hdm2 (SJSA1—osteosarcoma), wild type p53 and normal levels of HDM2 (AGS—gastric adenocarcinoma, MCF7—breast adenocarcinoma), or p53 null, low levels of HDM2 (H1299—large cell lung carcinoma).
Cells were lysed and equal amounts were analysed by SDS-polyacrylamide gel electrophoresis (SDS-PAGE) and immunoblotting.

MCF7 or H1299 cells = assay: Cell cycle distribution, propidium iodide flow cytometry; type: cell-based, human; details: 5 times IC50
Protocol: Cells were stained with propidium iodide and the cell cycle position was determined using a flow cytometer.

HDM2 [4] = target: T1, HDM2; assay: Fluorescence polarisation competitive HDM2 binding assay
Summary of the method: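 Recombinant HDM2 (1.5 μg/well) was preincubated 5 min at room temperature with serially diluted compound in 50 mM Tris pH 7.4, 150 mM NaCl, 0.1% BSA, 5% DMSO final. Fluorescein-labelled p53 peptide (0.2 μM) was then added for 45 min. Polarisation was read at 485/520 nm and IC50 derived from dose-response curves.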

AGS [5] = assay: 72-h MTT cytotoxicity assay, AGS; type: cell-based; details: Homo sapiens, 72-h MTT, Table 1, read-out: IC50 Anti-proliferative effect on cell line AGS
Protocol: The fluorescence polarisation competitive HDM2 binding assay described in Example 3 was used. Furthermore, the anti-proliferative potency of the compounds against three human tumour cell lines with different genetic make-up was also determined. […] The cell lines used were as follows: AGS, gastric adenocarcinoma, wild-type p53; H1299, large cell lung carcinoma, p53 null, low HDM2; SJSA-1, primitive multipotential bone sarcoma, wild-type p53, overexpressed HDM2.
as §1

[6] = Table 5, read-out: IC50, agent alone
[7] = Homo sapiens, Table 6, read-out: IC50, agent alone

Compound: CC[C@H](CO)Nc1nc(NCc2ccccc2)c2ncn(C(C)C)c2n1 [Roscovitine, reference compound]
IC50 (carcinoma cell lines): 11.2 ± 3 µM

Compound: O=C(O)COc1ccc(C(=O)C=Cc2ccc(Cl)c(Cl)c2)cc1 [Compound B-1, {4-[3-(3,4-dichloro-phenyl)-acryloyl]-phenoxy}-acetic acid]
affinity for HDM2 / inhibition of the p53/HDM2 complex (HDM2 [1]): high micromolar affinity

Compound: TFSDLW (UniProt P04637 18-23, looked up, fragment) [p53(18-23)]
affinity for HDM2 / inhibition of the p53/HDM2 complex (HDM2 [1]): little affinity

Compound: MPRFMDYWEGLN
affinity for HDM2 / inhibition of the p53/HDM2 complex (HDM2 [1]): sub-micromolar affinity | fold more potent than the corresponding wild-type p53-derived peptide (HDM2 [1]; versus 16QETFSDLWKLLF27): 28 fold

Compound: N.N.[Cl][Pt][Cl] [Cisplatin, reference compound]
IC50 (AGS [2]; [6]): 3.8 µM | IC50 (H1299; MTT, Table 5, read-out: IC50, agent alone): 2.9 µM | IC50 (SJSA-1; [6]): 6.1 µM | p53 level and p53 phosphorylation at serine 15 ([3]; compound 2: AGS, H1299, MCF7 or SJSA1 cells, etoposide or cisplatinum: AGS or MCF7 cells): inducing p53 phosphorylation of serine 15, as well as increasing the p53 and E2F-1 protein levels | cell cycle arrest (MCF7 or H1299 cells): no detectable arrest at any phase of the cell cycle | sub-G1 cells, indicative of apoptosis (MCF7 or H1299 cells): induced sub-G1 cells

inhibition of the HDM2-p53 interaction in vitro (HDM2 [4]): does not inhibit
Compound: O=S(=O)(NCc1ccc(C(F)(F)F)cc1)c1cc(Br)c(Cl)s1 [negative control compound, 4-bromo-5-chloro-thiophene-2-sulfonic acid 4-trifluoromethyl-benzylamide, reference compound]
changes in protein levels and cell morphology [3]: did not induce any notable changes in the protein levels tested or cell morphology

Compound: chlorofusin
affinity for HDM2 / inhibition of the p53/HDM2 complex (HDM2 [1]): micromolar inhibitor

IC50 (AGS [2]; [7]): 0.28 µM | IC50 (H1299; Homo sapiens, NCI-H1299, MTT, Table 6, read-out: IC50, agent alone): 1.3 µM | IC50 (SJSA-1; [7]): 16 µM
Compound: COc1cc([C@@H]2c3cc4c(cc3[C@@H](O[C@@H]3O[C@@H]5CO[C@@H](C)O[C@H]5[C@H](O)[C@H]3O)[C@H]3COC(=O)[C@H]23)OCO4)cc(OC)c1O [Etoposide, reference compound]

Compound: FMDYWEGL
affinity for HDM2 / inhibition of the p53/HDM2 complex (HDM2 [1]): micromolar affinity

IC50 (HDM2 [4]; text of Example 10, refer Table 1, read-out: competitive inhibition IC50): 431 µM
Compound: O=[N+]([O-])c1ccc(S(=O)(=O)Nc2ccc(Cl)cc2)s1 [Compound 68, 5-Nitro-thiophene-2-sulfonic acid (4-chloro-phenyl)-amide]
IC50 (AGS [5]): 76 µM | changes in protein levels and cell morphology [3]: Little change in protein levels
